Measured values as given in patent US20120302516A1, “NANOPARTICLES FOR DRUG DELIVERY” (UNIVERSITY OF LOUISVILLE RESEARCH FOUNDATION, INC., priority 2009, published 2012).
Where a name gives a salt, the structure may show the parent alone.

Key:
[1] = AEM field-mediated release of FITC conjugates from NP.(AO).FITC particles, supernatant fluorescence (HPLC); type: physicochemical; details: water, AEM field 201.4 A, 203 kHz, 30 minutes, after washes
From the text: The fluorophore FITC-CHO was attached to iron oxide nanoparticles by reaction with NP-bound aminooxy compounds (previously described compounds 6.1, 7.1 and the diol analog of 7.1) to show the influence of resident hydroxyl functionality on the binding and release properties of derived iron oxide formulations. Scheme E below depicts the fluorophore aldehyde and the three oxime ether conjugates selected for this study. Using the stepwise synthesis method, FITC-CHO was mixed with NP-AO particles derived from the three aminooxy compounds to give the NP.(AO).FITC fluorophore formulations. […] The relative binding and release properties were measured by fluorescence spectroscopy on the supernatant solutions after magnetic separation of the nanoparticles and/or NP.(AO).FITC particles.
Integration of the supernatant fluorescence after NP washing and after AEM field irradiation is indicative of the binding to the nanoparticles and the release of FITC into the supernatant. […]
To a suspension of the NP.AO (3 mg) in methanol at room temperature was added a solution of FITC-CHO in methanol (0.01M, 50 μL/mg of NP.AO). […] The particles then were magnetically separated, the supernatant was removed and analyzed. The particles were washed twice with methanol (3× reaction volume) and the supernatants collected each time and analyzed. […]

MCF-7 cells = experiment: AEM field-induced drug release in MCF-7 cells; dead (floating) cells counted by hemocytometer after 48 h; type: cell-based, Human; details: AEM field exposure No, no Fe3O4, 0.3 mg Dox
Method: Breast cancer MCF-7 cells were treated with the resultant Dox-NP formulations, and the treated cells then were either allowed to incubate or briefly exposed to an AEM field to induce drug release from the Dox-NP formulations.
AEM field study. Results of MCF-7 cells treated with nanoparticle-doxorubicin formulations followed by alternating electromagnetic (AEM) field exposure (15 mins, 350 A, 203 KHz) were obtained. Cells plated in 30 mm dishes were treated with NP formulations at a 0.5 mg Fe3O4 dose unless otherwise specified. Doxorubicin loadings per mg NP formulation were as follows: dNP.AO.Dox (0.64 mg Dox/mg), sNP.AO.Dox (0.43 mg Dox/mg), NP.Dox (0.05 mg Dox/mg). […]
Cell culture toxicity study. Human breast cancer cells (MCF-7) were purchased from American Type Culture Collection (VA, USA). Cells were plated in 30 mm dishes at ˜4˜10^5 cells/dish, and then grown up to 50-60% confluency in DMEM, 1% Pennstrep (Mediatech, Inc, VA) and 10% FBS (Valley Biomedical, Winchester, Va.).
Alternating electromagnetic field-induced drug release in MCF-7 cells. […]
Each measured amount of NP formulation was diluted to 2 mL by adding DMEM containing 10% FBS. […]

C[N+](CCO)(CCO)CCO/N=C/CCCNC(=S)Nc1ccc(-c2c3ccc(=O)cc-3oc3cc(O)ccc23)c(C(=O)O)c1 [FITC-III]
release into supernatant (fluorescence) after AEM field exposure [1]: considerable FITC-conjugate is released into solution

COc1cccc2c1C(=O)c1c(O)c3c(c(O)c1C2=O)C[C@@](O)(C(=O)CO)C[C@@H]3O[C@H]1C[C@H](N)[C@H](O)[C@H](C)O1 [Dox, doxorubicin.HCl]
MCF-7 cell death, extent (major/minor) (MCF-7 cells; continuation line of the cell death cell): (major) | MCF-7 cell death (MCF-7 cells; relative to 'cells only' control, 48 h): Yes

O=CCCCNC(=S)Nc1ccc(-c2c3ccc(=O)cc-3oc3cc(O)ccc23)c(C(=O)O)c1 [FITC-CHO]
release into supernatant (fluorescence) after AEM field exposure [1]: no recovery of fluorescence after exposure to an AEM field
